Measured values taken from patent US11464770B2, “Anticancer pharmaceutical composition” (NATIONAL CANCER CENTER, priority 2016, dated 2022).
Like-named read-outs stand apart in the source and are kept apart here.

Tests used:
[1] = test system: prostate cancer cell lines (e.g. DU145/TXR); assay: Cell based assay, cell viability (CellTiter-Glo), prostate cancer cell lines; details: Homo sapiens, 72 hours treatment, final concentration 0 to 2 μM
Protocol: (§1) Commercially available bladder cancer, prostate cancer, lung cancer, breast cancer, blood cancer, pancreatic cancer, colorectal cancer, brain cancer, neuroblastoma, melanoma, liver cancer, cervical carcinoma, ovarian cancer, renal cancer, and papilloma cell lines were each treated with trypsin-EDTA and cultured, followed by being seeded in each well of a 96 well plate. After 24 hours of treatment at constant temperature, the respective cells were treated with the candidate compound so that a final concentration became 0 to 2 μM. The treated cells were additionally cultured for 72 hours, and cell viability was measured by using an ATP detection method (CellTiter-Glo® Luminescent Cell Viability Assay, Promega).

renal cancer cell lines = assay: Cell based assay, cell viability (CellTiter-Glo), renal cancer cell lines; details: Homo sapiens; ACHN cells
Protocol: as §1

[2] = CWR22 cells, read-out: IC50, prostate cancer cell line CWR22
[3] = DU-145, DU145/TXR cells, read-out: IC50, prostate cancer cell line DU145/TXR
[4] = DU-145, DU145 cells, read-out: IC50, prostate cancer cell line DU145
[5] = LNcap cells, read-out: IC50, prostate cancer cell line LNcap
[6] = PC-3 cells, read-out: IC50, prostate cancer cell line PC-3

| Structure (SMILES) | IC50 [1, 2] | IC50 [1, 3] | IC50 [1, 4] | IC50 [1, 5] | IC50 (renal cancer cell lines) | IC50 [1, 6] |
| --- | --- | --- | --- | --- | --- | --- |
| CC(=O)c1c([S+]([O-])C(C)c2ccccc2)[nH]c2c(Br)ccc(Cl)c2c1=O (centres unmarked) [Compound 26, 3-acetyl-8-bromo-5-chloro-2-((1-phenylethyl)sulfinyl)quinolin-4(1H)-one] | > 2000 nM | > 2000 nM | > 2000 nM | > 2000 nM | > 2000 nM |  |
| CC(=O)c1c(SCc2cccc(C#N)c2)[nH]c2c(Br)ccc(Cl)c2c1=O [Compound 27, 3-(((3-acetyl-8-bromo-5-chloro-4-oxo-1,4-dihydroquinolin-2-yl)thio)methyl)benzonitrile] | > 2000 nM | > 2000 nM | > 2000 nM | > 2000 nM | > 2000 nM | > 2000 nM |
| CC(=O)c1c([S+]([O-])Cc2cccc(C#N)c2)[nH]c2c(Br)ccc(Cl)c2c1=O (centres unmarked) [Compound 28, 3-(((3-acetyl-8-bromo-5-chloro-4-oxo-1,4-dihydroquinolin-2-yl)sulfinyl)methyl)benzonitrile] | 1070 nM | 1010 nM | 1280 nM | 1340 nM | > 2000 nM | 1160 nM |
| CC(=O)c1c(SCc2ccc(F)c(Cl)c2)[nH]c2c(Br)ccc(Cl)c2c1=O [Compound 30, 3-acetyl-8-bromo-5-chloro-2-((3-chloro-4-fluorobenzyl)thio)quinolin-4(1H)-one] | > 2000 nM | > 2000 nM | > 2000 nM | > 2000 nM | > 2000 nM | > 2000 nM |
| CC(=O)c1c(SCc2ccc([N+](=O)[O-])cc2)[nH]c2c(Br)ccc(Cl)c2c1=O [Compound 32, 3-acetyl-8-bromo-5-chloro-2-((4-nitrobenzyl)thio)quinolin-4(1H)-one] | > 2000 nM | > 2000 nM | > 2000 nM | > 2000 nM | > 2000 nM | > 2000 nM |
| CSc1c(C(C)=O)c(=O)c2c(Cl)ccc(Br)c2n1S(C)(=O)=O [Compound 35, 3-acetyl-8-bromo-5-chloro-1-(methylsulfonyl)-2-(methylthio)quinolin-4(1H)-one] | > 2000 nM | > 2000 nM | > 2000 nM | > 2000 nM | > 2000 nM | > 2000 nM |
| CC(=O)c1c([S+](C)[O-])n(S(=O)(=O)C(F)(F)F)c2c(Br)ccc(Cl)c2c1=O (centres unmarked) [Compound 36, 3-acetyl-8-bromo-5-chloro-2-(methylsulfinyl)-1-((trifluoromethyl)sulfonyl)quinolin-4(1H)-one] | > 2000 nM | > 2000 nM | > 2000 nM | > 2000 nM | > 2000 nM | > 2000 nM |
| CSc1c(C(C)=O)c(=O)c2c(Cl)ccc(Br)c2n1S(=O)(=O)c1ccc(Cl)cc1 [Compound 37, 3-acetyl-8-bromo-5-chloro-1-((4-chlorophenyl)sulfonyl)-2-(methylthio)quinolin-4(1H)-one] | > 2000 nM | > 2000 nM | > 2000 nM | > 2000 nM | > 2000 nM | > 2000 nM |
| CSc1c(C(C)=O)c(=O)c2c(Cl)ccc(Br)c2n1S(=O)(=O)c1ccc([N+](=O)[O-])cc1 [Compound 38, 3-acetyl-8-bromo-5-chloro-2-(methylthio)-1-((4-nitrophenyl)sulfonyl)quinolin-4(1H)-one] | > 2000 nM | > 2000 nM | > 2000 nM | > 2000 nM | > 2000 nM | > 2000 nM |
| CCS(=O)(=O)n1c([S+](C)[O-])c(C(C)=O)c(=O)c2c(Cl)ccc(Br)c21 (centres unmarked) [Compound 39, 3-acetyl-8-bromo-5-chloro-1-(ethylsulfonyl)-2-(methylsulfinyl)quinolin-4(1H)-one] | > 2000 nM | > 2000 nM | > 2000 nM | > 2000 nM | > 2000 nM | > 2000 nM |
| CSc1c(C(C)=O)c(=O)c2c(Cl)ccc(Br)c2n1S(=O)(=O)c1ccc(C(C)(C)C)cc1 [Compound 40, 3-acetyl-8-bromo-1-((4-(tert-butyl)phenyl)sulfonyl)-5-chloro-2-(methylthio)quinolin-4(1H)-one] | > 2000 nM | > 2000 nM | > 2000 nM | > 2000 nM | > 2000 nM | > 2000 nM |
| CC(=O)c1c(S(C)(=O)=O)n(S(=O)(=O)c2ccc(C(C)(C)C)cc2)c2c(Br)ccc(Cl)c2c1=O [Compound 41, 3-acetyl-8-bromo-1-((4-(tert-butyl)phenyl)sulfonyl)-5-chloro-2-(methylsulfonyl)quinolin-4(1H)-one] | > 2000 nM | > 2000 nM | > 2000 nM | > 2000 nM | > 2000 nM | > 2000 nM |
| CC(=O)c1c([S+](C)[O-])n(S(=O)(=O)c2ccc(C(C)(C)C)cc2)c2c(Br)ccc(Cl)c2c1=O (centres unmarked) [Compound 42, 3-acetyl-8-bromo-1-((4-(tert-butyl)phenyl)sulfonyl)-5-chloro-2-(methylsulfinyl)quinolin-4(1H)-one] | > 2000 nM | > 2000 nM | > 2000 nM | > 2000 nM | > 2000 nM | > 2000 nM |
| CC(=O)c1c(SCc2cc(Cl)ccc2Cl)[nH]c2c(Br)ccc(Cl)c2c1=O [Compound 43, 3-acetyl-8-bromo-5-chloro-2-((2,5-dichlorobenzyl)thio)quinolin-4(1H)-one] | > 2000 nM | > 2000 nM | > 2000 nM | > 2000 nM | > 2000 nM | > 2000 nM |
